The text below walks through data of patent publication US20230416258A1, “BENZ[…], AND PREPARATION METHOD THEREFOR AND USE THEREOF” (CHINA PHARMACEUTICAL UNIVERSITY, priority 2020, published 2023).

The subject of data set [1] is KM mice. In words: Test for drug-induced disappearance of righting reflex in mice. The format is in vivo. To be noted: single rapid bolus via tail vein. Put shortly:
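Female KM mice (18–25 g), randomly grouped, given a single rapid bolus via tail vein. Latency (administration to loss of righting reflex) and duration (loss to recovery) recorded.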

The subject of data set [2] is SD rats. Briefly: Test for drug-induced disappearance of righting reflex in rats. The format is in vivo. To be noted: single rapid bolus via tail vein. An excerpt: In anesthetic drug experiments, latency generally refers to the time from the start of administration to the loss of consciousness of the subject. The shorter latency is preferred, indicating a rapid onset of action after administration. The duration of anesthesia generally refers to the duration of time from the loss of consciousness to the restoration of consciousness of the subject. The duration of the drug will vary from animal model to animal species. Too long anesthesia may produce adverse cardiovascular and respiratory responses, such as adverse neurological effects to the subject, including sleepiness and dizziness; meanwhile, too short duration of anesthesia may affect the anesthesia effect, causing problems such as increase of anesthesia dosage during the operation.
SD rats (male, 200-280 g) were randomly grouped and subjected to a single administration by rapid bolus via the tail vein. The latency and duration of righting reflex in the rats were recorded.

The test system of data set [3] is GABA-activated Cl− current (GABAA receptor) in HEK 293T cells. Briefly: Effect of drugs on GABA-activated current in cells by cell patch clamp. It is filed as cell-based. To be noted: for Enhancement percentage Emax for 2 μM GABA current (within 3-30 μM): corresponding concentration 20 μM. How it is done:
Test compounds were dissolved at various concentrations in an extracellular buffer (140 mM NaCl, 4.7 mM KCl, 10 mM HEPES, 2 mM CaCl2), 10 mM glucose, 1 mM MgCl2, pH 7.4). HEK 293T cells were seeded on glass coverslips and cultured in DMEM media at 37° C. with 5% CO2 for 24 h. GABA Cl^− current was subjected to whole cell recording using an HEKA EPC 10USB patch clamp amplifier. 2 μM GABA was used for exciting Cl^− current, with the membrane potential clamped at −60 mV. The cells were treated with the test compound and 2 μM GABA simultaneously, and the induction effect on and Emax of Cl^− current in the same cell were recorded.
Maximum enhancement percentage Emax for 2 μM GABA current and corresponding concentration (μM): 100% for normal humans. The greater the percentage, the lower the corresponding concentration, and the greater the depth of anesthesia.

The subject of data set [4] is hCMEC/D3 cells. In words: Rate of drug passing through in vitro blood-brain barrier (Transwell). The format is in vitro ADME. To be noted: hCMEC/D3 monolayer, compound 0.1 mg/mL. As to the method: A Transwell device (pore size: 5.0 μm) was placed in a 24-well cell culture well; then hCMEC/D3 cells at 1×10^5 cells/mL were transferred to the upper microwells of Transwell at 150 μL/well, and cell culture medium was added to the lower microwells. After the bottom was covered by a single layer of the cells, the medium in the wells was replaced with EBM-2 complete medium containing 1% FBS, and the cells were cultured in a CO2 incubator for 10 days until a fully dense single layer of the cells was formed. When a fully dense single layer of the cells was formed, the compound at 0.1 mg/mL was added to the lower medium, and after 5 min, the concentration of the compound in the upper medium was measured to calculate the permeability:
Pcompound%=Cupper compound/Clower compound×100%

Data set [5] relates to SD rats. In words: Induction of anesthesia in rats by continuous infusion of drug for 20 min. The format is in vivo. To be noted: initial dose 20 mg/kg bolus, maintenance dose 0.2 (mg/kg)/min for 20 min, after infusion completed. As to the method: SD rats (male, 200-280 g) were randomly grouped and subjected to administration of an initial dose by rapid bolus via the tail vein, followed by a continuous infusion with a maintenance dose for 20 min.
After the infusion was completed, the duration of the righting reflex and the time from wake-up to recovery in rats were recorded.

A short description of data set [6]: In vitro plasma half-life of drug. It is filed as in vitro ADME, SD rats. To be noted: plasma (heparin sodium); SD rat plasma, 37° C. As to the method:
Preparation of plasma: after the SD rats were fasted and kept with water for 12 h, blood was collected through orbital venous plexus. The freshly collected blood was added into a centrifuge tube containing heparin sodium and centrifuged at 5000 rpm for 10 min at 4° C. The supernatant was slowly pipetted and subpackaged. Finally, the collected SD rat plasma was sealed, marked, and stored at −20° C. for later use.
Preparation of target compound sample: the target compound was precisely weighed by an analytical balance and prepared into a stock solution at a concentration of 2 mg/mL (solvent: Vacetone:VTween 80:Vnormal saline=1:1:3) for later use.
Determination of in vitro half-life of target compound sample: 20 μL of test compound stock solution and 80 μL of rat plasma were mixed uniformly. Nine parallel ep tubes were taken, marked as corresponding test tubes of 0 min, 1 min, 2 min, 3 min, 5 min, 10 min, 15 min, 20 min, and 30 min, respectively, and placed in a water bath at 37° C. for incubation for 0 min, 1 min, 2 min, 3 min, 5 min, 10 min, 15 min, 20 min, and 30 min, respectively. 50 μL of mixed solution were taken from the corresponding ep tube at each time point, and […] of acetonitrile was added for precipitating protein. The mixture was vortexed for 10 min using a mixer and centrifuged at 12000 rpm for 15 min. Then, the supernatant was centrifuged at 12000 rpm for 10 min. The optimal detection method for the target compound in the MRM mode was determined using Intellistat software in UPLC-MS/MS, the peak area of the corresponding mass spectrum was integrated, and the plasma half-life of the compound was calculated.

Where [7] appears, read: read-out: Positive enhancement EC50 (μM) for 2 μM GABA-induced current, −60 mV.

Where two headings read alike, the source gives them in different places.

In the case of `COC(=O)CC[C@@H]1N=C(c2ccccc2F)c2cc(Br)ccc2-n2c(S)nnc21` [Compound 4, methyl (S)-3-(8-bromo-6-(2-fluorophenyl)-1-mercapto-4H-benzo[f][1,2,4]triazolo[4,3-a][1,4]diazepin-4-yl)propionate], in data set [1] (30 mg/kg), the Duration amounted to 9.21 min and the Latency is 0.88 min. For the same compound, in data set [2], the Latency is recorded as 0.35 min. Moreover, in data set [3] (setting [7]), the 50% effective concentration (EC50) was determined as 0.69 µM. For the same compound, in data set [3] (−60 mV), the “Enhancement percentage Emax for 2 μM GABA current (within 3-30 μM)” value (from here on “Enhancement percentage Emax”) is on record as 252% (20 μM). In addition, the “In vitro blood-brain barrier, compound permeability at 5 min” value (from here on “In vitro blood-brain barrier”) in data set [4] worked out at 68.6%. Moreover, in data set [5], the Duration of anesthesia was 5.21 min and the “Time from wake-up to recovery” value is 15.6 min. Further, in data set [6], the half-life at 0.4 mg/mL was 104 s.

In data set [1] (30 mg/kg), `CCCSc1nnc2n1-c1ccc(Br)cc1C(c1ccccc1Cl)=N[C@H]2CCC(=O)OC` [Compound 30, methyl (S)-3-(8-bromo-6-(2-chlorophenyl)-1-(propylthio)-4H-benzo[f][1,2,4]triazolo[4,3-a][1,4]diazepin-4-yl)propionate] registered a Duration of 7.44 min and a Latency of 0.42 min. In data set [6], this compound had a half-life at 0.4 mg/mL of 27 s.

Take `COC(=O)CC[C@@H]1N=C(c2ccccc2Cl)c2cc(Cl)ccc2-n2c(SCCO)nnc21` [Compound 32, methyl (S)-3-(8-chloro-6-(2-chlorophenyl)-1-((2-hydroxyethyl)thio)-4H-benzo[f][1,2,4]triazolo[4,3-a][1,4]diazepin-4-yl)propionate]: in data set [1] (30 mg/kg), the Duration is listed as 20.73 min and the Latency came to 0.73 min. The same compound came in with a half-life at 0.4 mg/mL in data set [6] of 16.2 s.

Regarding `COC(=O)CC[C@@H]1N=C(c2ccccc2Cl)c2cc(Br)ccc2-n2c(SCCO)nnc21` [Compound 33, methyl (S)-3-(8-bromo-6-(2-chlorophenyl)-1-((2-hydroxyethyl)thio)-4H-benzo[f][1,2,4]triazolo[4,3-a][1,4]diazepin-4-yl)propionate], in data set [1] (60 mg/kg), the Duration came to 6.41 min and the Latency came to 0.21 min. In data set [1] (100 mg/kg), this compound had a Duration of 12.38 min and a Latency of 0.22 min. Further, in data set [2], the Latency was 0.52 min. Moreover, in data set [3] (setting [7]), the concentration for a half-maximal effect (EC50) came to 0.44 µM. In data set [3] (−60 mV), the “Enhancement percentage Emax” value is given as 279% (20 μM). Also, in data set [4], the “In vitro blood-brain barrier” value is 83.4%. Further, in data set [5], the Duration of anesthesia was 17.3 min and the “Time from wake-up to recovery” value was found to be 20.2 min. Also, the half-life at 0.4 mg/mL in data set [6] is 53.4 s.

Turning to `COC(=O)CC[C@@H]1N=C(c2ccccc2Cl)c2cc(Cl)ccc2-n2c(SCCN)nnc21` [Compound 35, methyl (S)-3-(8-chloro-6-(2-chlorophenyl)-1-((2-aminoethyl)thio)-4H-benzo[f][1,2,4]triazolo[4,3-a][1,4]diazepin-4-yl)propionate], in data set [1] (60 mg/kg), the Duration is listed as 40.26 min and the Latency is recorded as 0.18 min. Besides, the Latency in data set [2] was 0.25 min. The half-maximal effective concentration (EC50) in data set [3] (setting [7]) was determined as 0.36 µM. The “Enhancement percentage Emax” value in data set [3] (−60 mV) is reported as 318% (20 μM). The “In vitro blood-brain barrier” value in data set [4] is recorded as 84.6%. Moreover, in data set [5], the Duration of anesthesia turned out to be 51.3 min and the “Time from wake-up to recovery” value is 33.8 min. The same compound yielded a half-life at 0.4 mg/mL in data set [6] of 12.6 s.

`COC(=O)CC[C@@H]1N=C(c2ccccc2Cl)c2cc(Br)ccc2-n2c(SCCN)nnc21` [Compound 36, methyl (S)-3-(8-bromo-6-(2-chlorophenyl)-1-((2-aminoethyl)thio)-4H-benzo[f][1,2,4]triazolo[4,3-a][1,4]diazepin-4-yl)propionate]: in data set [1] (60 mg/kg), the Duration was found to be 8.82 min and the Latency was 0.34 min. This compound also registered a Latency in data set [2] of 0.28 min. The EC50 in data set [3] (setting [7]) came to 0.58 µM. For the same compound, the “Enhancement percentage Emax” value in data set [3] (−60 mV) is 227% (20 μM). In data set [4], the “In vitro blood-brain barrier” value is 71.6%. For the same compound, in data set [5], the Duration of anesthesia worked out at 9.37 min and the “Time from wake-up to recovery” value was 17.5 min. The compound also registered a half-life at 0.4 mg/mL in data set [6] of 34.2 s.

In data set [1] (60 mg/kg), `COC(=O)CC[C@@H]1N=C(c2ccccc2Cl)c2cc(Br)ccc2-n2c(SC(C)=O)nnc21` [Compound 39, methyl (S)-3-(8-bromo-6-(2-chlorophenyl)-1-(acetylthio)-4H-benzo[f][1,2,4]triazolo[4,3-a][1,4]diazepin-4-yl)propionate] returned a Duration of 9.67 min and a Latency of 0.19 min. The compound also registered a Latency in data set [2] of 0.38 min. For the same compound, the 50% effective concentration (EC50) in data set [3] (setting [7]) was 0.88 µM. The “Enhancement percentage Emax” value in data set [3] (−60 mV) is given as 272% (20 μM). The “In vitro blood-brain barrier” value in data set [4] is on record as 82.6%. Also, in data set [5], the Duration of anesthesia is on record as 7.86 min and the “Time from wake-up to recovery” value is on record as 11.2 min. The same compound yielded a half-life at 0.4 mg/mL in data set [6] of 25.8 s.

In data set [1] (30 mg/kg), `COC(=O)CC[C@@H]1N=C(c2ccccc2F)c2cc(Br)ccc2-n2c(SCCN3CCOCC3)nnc21` [Compound 52, methyl (S)-3-(8-bromo-6-(2-fluorophenyl)-1-((2-morpholinoethyl)thio)-4H-benzo[f][1,2,4]triazolo[4,3-a][1,4]diazepin-4-yl)propionate] came in with a Duration of 5.38 min and a Latency of 1.3 min. In data set [1] (60 mg/kg), the Duration came to 7.22 min and the Latency is recorded as 0.94 min. The same compound came in with a Latency in data set [2] of 0.33 min. Also, the EC50 in data set [3] (setting [7]) amounted to 0.47 µM. For the same compound, the “Enhancement percentage Emax” value in data set [3] (−60 mV) is recorded as 293% (20 μM). The “In vitro blood-brain barrier” value in data set [4] amounted to 80.1%. For the same compound, in data set [5], the Duration of anesthesia came out at 6.25 min and the “Time from wake-up to recovery” value stood at 16.2 min. In data set [6], this compound displayed a half-life at 0.4 mg/mL of 21.6 s.

Turning to `COC(=O)CC[C@@H]1N=C(c2ccccc2F)c2cc(Br)ccc2-n2c1n[nH]c2=S` [Tautomer of compound 4, methyl (S)-3-(8-bromo-6-(2-fluorophenyl)-1-thio-2,4-dihydro-1H-benzo[f][1,2,4]triazolo[4,3-a][1,4]diazepin-4-yl) propionate], in data set [1] (30 mg/kg), the Duration is 2.95 min and the Latency was 0.38 min. In data set [2], this compound had a Duration of 15.4 min and a Latency of 0.48 min. The EC50 in data set [3] (2 μM GABA, −60 mV, read-out: Positive enhancement EC50 (μM) for 2 μM GABA-induced current) worked out at 0.65 µM. In data set [3] (−60 mV), the “Enhancement percentage Emax” value is recorded as 238% (20 μM). Moreover, the “In vitro blood-brain barrier” value in data set [4] is on record as 75.8%. For the same compound, in data set [5], the Duration of anesthesia was found to be 4.84 min and the “Time from wake-up to recovery” value is 10.3 min.
